# Source: PubChem BioAssay (NCI)
#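 All cell lines were grown in 96-well plates and treated with compound for 48 hours. Abbreviation: GI50, concentration required for 50% inhibition of growth. At the TGI there is no net growth.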
# How the values were obtained:
# Test in all cases: growth of human tumour cells (NCI), 48 h
# SW-620 colon = system: SW-620 colon
# COLO 205 colon = system: COLO 205 colon
# KM12 colon = system: KM12 colon
# A498 renal = system: A498 renal
# SK-MEL-28 melanoma = system: SK-MEL-28 melanoma
# NCI/ADR-RES ovarian = system: NCI/ADR-RES ovarian
# SK-MEL-2 melanoma = system: SK-MEL-2 melanoma
# HCT-15 colon = system: HCT-15 colon
# U251 CNS = system: U251 CNS
# SNB-75 CNS = system: SNB-75 CNS
# OVCAR-3 ovarian = system: OVCAR-3 ovarian
# RPMI-8226 leukemia = system: RPMI-8226 leukemia
# HOP-62 NSCLC = system: HOP-62 NSCLC
# NCI-H23 lung = system: NCI-H23 lung
# PC-3 prostate = system: PC-3 prostate
# SN12C renal = system: SN12C renal
# SF-295 CNS = system: SF-295 CNS
# SR leukemia = system: SR leukemia
# OVCAR-4 ovarian = system: OVCAR-4 ovarian
# OVCAR-8 ovarian = system: OVCAR-8 ovarian
# MDA-MB-435 = system: MDA-MB-435
# HCC-2998 colon = system: HCC-2998 colon
# RXF 393 renal = system: RXF 393 renal
# 786-0 renal = system: 786-0 renal
# UO-31 renal = system: UO-31 renal
# M14 melanoma = system: M14 melanoma
# SK-MEL-5 melanoma = system: SK-MEL-5 melanoma
# DU-145 prostate = system: DU-145 prostate
# SNB-19 CNS = system: SNB-19 CNS
# NCI-H522 lung = system: NCI-H522 lung
# NCI-H226 lung = system: NCI-H226 lung
# BT-549 breast = system: BT-549 breast
# HS 578T breast = system: HS 578T breast
# CCRF-CEM leukemia = system: CCRF-CEM leukemia
# HCT-116 colon = system: HCT-116 colon
# MOLT-4 leukemia = system: MOLT-4 leukemia
# LOX IMVI melanoma = system: LOX IMVI melanoma
# UACC-62 melanoma = system: UACC-62 melanoma
# TK-10 renal = system: TK-10 renal
# OVCAR-5 ovarian = system: OVCAR-5 ovarian
# IGROV1 ovarian = system: IGROV1 ovarian
# HL-60(TB) leukemia = system: HL-60(TB) leukemia
# ACHN renal = system: ACHN renal
# UACC-257 melanoma = system: UACC-257 melanoma
# MCF7 breast = system: MCF7 breast
# SK-OV-3 ovarian = system: SK-OV-3 ovarian
# MDA-MB-231 breast = system: MDA-MB-231 breast
# HOP-92 NSCLC = system: HOP-92 NSCLC
# T-47D breast = system: T-47D breast
# SF-268 CNS = system: SF-268 CNS
# NCI-H460 lung = system: NCI-H460 lung
# SF-539 CNS = system: SF-539 CNS
# A549 NSCLC = system: A549 NSCLC
compound,measurement,setting,value
COc1cc(C2C=C(C)N=C3SC=C(C)N32)cc(OC)c1OC (stereo unspecified),GI50,SW-620 colon,516 nM
same,TGI,SW-620 colon,9430 nM
same,GI50,COLO 205 colon,1320 nM
same,TGI,COLO 205 colon,3040 nM
same,GI50,KM12 colon,1330 nM
same,TGI,KM12 colon,4550 nM
same,GI50,A498 renal,2390 nM
same,TGI,A498 renal,5640 nM
same,GI50,SK-MEL-28 melanoma,507 nM
same,TGI,SK-MEL-28 melanoma,2010 nM
same,GI50,NCI/ADR-RES ovarian,454 nM
same,TGI,NCI/ADR-RES ovarian,> 100000 nM
same,GI50,SK-MEL-2 melanoma,2040 nM
same,TGI,SK-MEL-2 melanoma,4940 nM
same,GI50,HCT-15 colon,246 nM
same,TGI,HCT-15 colon,822 nM
same,GI50,U251 CNS,671 nM
same,TGI,U251 CNS,2790 nM
same,GI50,SNB-75 CNS,4300 nM
same,TGI,SNB-75 CNS,20100 nM
same,GI50,OVCAR-3 ovarian,781 nM
same,TGI,OVCAR-3 ovarian,7660 nM
same,GI50,RPMI-8226 leukemia,385 nM
same,TGI,RPMI-8226 leukemia,2570 nM
same,GI50,HOP-62 NSCLC,2080 nM
same,TGI,HOP-62 NSCLC,4530 nM
same,GI50,NCI-H23 lung,1770 nM
same,TGI,NCI-H23 lung,5410 nM
same,GI50,PC-3 prostate,1560 nM
same,TGI,PC-3 prostate,5880 nM
same,GI50,SN12C renal,2230 nM
same,TGI,SN12C renal,7530 nM
same,GI50,SF-295 CNS,2070 nM
same,TGI,SF-295 CNS,6190 nM
same,GI50,SR leukemia,249 nM
same,TGI,SR leukemia,> 100000 nM
same,GI50,OVCAR-4 ovarian,3990 nM
same,TGI,OVCAR-4 ovarian,> 100000 nM
same,GI50,OVCAR-8 ovarian,342 nM
same,TGI,OVCAR-8 ovarian,10100 nM
same,GI50,MDA-MB-435,631 nM
same,TGI,MDA-MB-435,6450 nM
same,GI50,HCC-2998 colon,1940 nM
same,TGI,HCC-2998 colon,3540 nM
same,GI50,RXF 393 renal,1490 nM
same,TGI,RXF 393 renal,3140 nM
same,GI50,786-0 renal,827 nM
same,TGI,786-0 renal,2670 nM
same,GI50,UO-31 renal,1130 nM
same,TGI,UO-31 renal,2470 nM
same,GI50,M14 melanoma,1130 nM
same,TGI,M14 melanoma,2890 nM
same,GI50,SK-MEL-5 melanoma,1000 nM
same,TGI,SK-MEL-5 melanoma,2210 nM
same,GI50,DU-145 prostate,1810 nM
same,TGI,DU-145 prostate,> 100000 nM
same,GI50,SNB-19 CNS,2320 nM
same,TGI,SNB-19 CNS,15800 nM
same,GI50,NCI-H522 lung,530 nM
same,TGI,NCI-H522 lung,1810 nM
same,GI50,NCI-H226 lung,1880 nM
same,TGI,NCI-H226 lung,5810 nM
same,GI50,BT-549 breast,531 nM
same,TGI,BT-549 breast,2090 nM
same,GI50,HS 578T breast,2950 nM
same,TGI,HS 578T breast,74200 nM
same,GI50,CCRF-CEM leukemia,312 nM
same,TGI,CCRF-CEM leukemia,> 100000 nM
same,GI50,HCT-116 colon,171 nM
same,TGI,HCT-116 colon,336 nM
same,GI50,MOLT-4 leukemia,445 nM
same,TGI,MOLT-4 leukemia,> 100000 nM
same,GI50,LOX IMVI melanoma,379 nM
same,TGI,LOX IMVI melanoma,1730 nM
same,GI50,UACC-62 melanoma,473 nM
same,TGI,UACC-62 melanoma,1870 nM
same,GI50,TK-10 renal,2220 nM
same,TGI,TK-10 renal,5610 nM
same,GI50,OVCAR-5 ovarian,1550 nM
same,TGI,OVCAR-5 ovarian,3830 nM
same,GI50,IGROV1 ovarian,2220 nM
same,TGI,IGROV1 ovarian,7300 nM
same,GI50,HL-60(TB) leukemia,760 nM
same,TGI,HL-60(TB) leukemia,7090 nM
same,GI50,ACHN renal,618 nM
same,TGI,ACHN renal,3610 nM
same,GI50,UACC-257 melanoma,1770 nM
same,TGI,UACC-257 melanoma,4890 nM
same,GI50,MCF7 breast,333 nM
same,TGI,MCF7 breast,11900 nM
same,GI50,SK-OV-3 ovarian,2910 nM
same,TGI,SK-OV-3 ovarian,8540 nM
same,GI50,MDA-MB-231 breast,1500 nM
same,TGI,MDA-MB-231 breast,9260 nM
same,GI50,HOP-92 NSCLC,2080 nM
same,TGI,HOP-92 NSCLC,5950 nM
same,GI50,T-47D breast,1910 nM
same,TGI,T-47D breast,7270 nM
same,GI50,SF-268 CNS,1400 nM
same,TGI,SF-268 CNS,11400 nM
same,GI50,NCI-H460 lung,2110 nM
same,TGI,NCI-H460 lung,7330 nM
same,GI50,SF-539 CNS,353 nM
same,TGI,SF-539 CNS,4600 nM
same,GI50,A549 NSCLC,2100 nM
same,TGI,A549 NSCLC,6560 nM
